Data published in US7470686B2, “Method of inhibiting the expression and/or the activity of JNK” (Laboratoires Serono SA, priority 1999, dated 2008).
Where a name gives a salt, the structure may show the parent alone.

Columns and labels:
[1] = target: recombinant, pre-activated GST-JNK2 (Homo sapiens, UniProt P45984); test: JNK2 enzyme assay (SPA, GST-c-Jun phosphorylation); type: biochemical; conditions: 2 μM ATP, 120 min at R.T
Procedure: (§1) JNK2 and 3 enzyme assay: […] The incubation is performed for 120 min. at R.T and stopped upon addition of 200 μl of a solution containing 250 μg of Streptavidine-coated SPA beads (Amersham, Inc.)*, 5 mM EDTA, 0.1% Triton X-100 and 50 μM ATP, in phosphate saline buffer. After incubation for 60 minutes at RT, beads are sedimented by centrifugation at 1500×g for 5 minutes, resuspended in 200 μl of PBS containing 5 mM EDTA, 0.1% Triton X-100 and 50 μM ATP and the radioactivity measured in a scintillation β counter, following sedimentation of the beads as described above. By substituting GST-c Jun for biotinylated GST-1ATF2 or myelin basic protein, this assay can be used to measure inhibition of preactivated p38 and ERK MAP Kinases, respectively.

[2] = target: recombinant, pre-activated GST-JNK3 (Homo sapiens, UniProt P53779); test: JNK3 enzyme assay (SPA, GST-c-Jun phosphorylation); type: biochemical; conditions: 2 μM ATP, 120 min at R.T
Sequence of recombinant, pre-activated GST-JNK3 (P53779 whole entry): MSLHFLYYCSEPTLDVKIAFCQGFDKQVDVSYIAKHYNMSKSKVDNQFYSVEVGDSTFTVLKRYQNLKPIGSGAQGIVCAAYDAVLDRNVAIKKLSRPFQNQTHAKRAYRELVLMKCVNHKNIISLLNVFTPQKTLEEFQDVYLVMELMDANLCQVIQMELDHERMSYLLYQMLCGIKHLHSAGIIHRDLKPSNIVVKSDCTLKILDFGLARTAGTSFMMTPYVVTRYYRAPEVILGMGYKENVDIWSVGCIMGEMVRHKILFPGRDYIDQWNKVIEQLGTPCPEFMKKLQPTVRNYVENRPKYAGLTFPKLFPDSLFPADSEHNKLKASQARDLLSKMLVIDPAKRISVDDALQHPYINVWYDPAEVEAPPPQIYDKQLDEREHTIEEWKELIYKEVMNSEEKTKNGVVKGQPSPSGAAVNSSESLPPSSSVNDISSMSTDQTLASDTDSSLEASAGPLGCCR
Procedure: as §1

ERK2 = ERK2 (Homo sapiens, UniProt P28482); test: ERK2 enzyme assay (SPA, myelin basic protein substrate); type: biochemical
Sequence of ERK2 (P28482 whole entry, species assumed): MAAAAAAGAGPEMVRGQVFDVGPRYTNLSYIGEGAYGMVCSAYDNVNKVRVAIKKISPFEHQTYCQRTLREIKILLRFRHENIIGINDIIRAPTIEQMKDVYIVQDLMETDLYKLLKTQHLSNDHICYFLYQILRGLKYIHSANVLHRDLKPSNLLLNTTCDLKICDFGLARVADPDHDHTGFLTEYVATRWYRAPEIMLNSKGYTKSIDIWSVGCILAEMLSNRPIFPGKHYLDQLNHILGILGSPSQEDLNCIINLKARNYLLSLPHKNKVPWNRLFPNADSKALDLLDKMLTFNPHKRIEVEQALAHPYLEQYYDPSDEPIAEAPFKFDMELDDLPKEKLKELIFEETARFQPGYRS
Procedure: as §1

preactivated p38 = preactivated p38 (Homo sapiens, UniProt Q16539); test: p38 enzyme assay (SPA, GST-ATF2 substrate); type: biochemical
Sequence of preactivated p38 (Q16539 whole entry): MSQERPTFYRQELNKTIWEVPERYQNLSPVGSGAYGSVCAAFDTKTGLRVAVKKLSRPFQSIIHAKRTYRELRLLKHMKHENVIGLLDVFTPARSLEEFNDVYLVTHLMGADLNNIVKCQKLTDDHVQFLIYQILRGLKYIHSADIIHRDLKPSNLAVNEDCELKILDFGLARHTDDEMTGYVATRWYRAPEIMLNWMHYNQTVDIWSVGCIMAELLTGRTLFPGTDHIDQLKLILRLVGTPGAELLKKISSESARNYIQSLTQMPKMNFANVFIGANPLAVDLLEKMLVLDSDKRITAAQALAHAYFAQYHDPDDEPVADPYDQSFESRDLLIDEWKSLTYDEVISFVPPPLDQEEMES
Procedure: The incubation is performed for 120 min. at R.T and stopped upon addition of 200 μl of a solution containing 250 μg of Streptavidine-coated SPA beads (Amersham, Inc.)*, 5 mM EDTA, 0.1% Triton X-100 and 50 μM ATP, in phosphate saline buffer. After incubation for 60 minutes at RT, beads are sedimented by centrifugation at 1500×g for 5 minutes, resuspended in 200 μl of PBS containing 5 mM EDTA, 0.1% Triton X-100 and 50 μM ATP and the radioactivity measured in a scintillation β counter, following sedimentation of the beads as described above. By substituting GST-c Jun for biotinylated GST-1ATF2 or myelin basic protein, this assay can be used to measure inhibition of preactivated p38 and ERK MAP Kinases, respectively.

[3] = tested on: JNK (Hlr c-Jun HeLa cells); test: C-Jun reporter assay; type: cell-based; conditions: Homo sapiens, MEKK1-transfected Hlr c-Jun HeLa cells, luciferase reporter
Procedure: Hlr c-Jun HeLa cells are cultured in DMEM High Glc supplemented with 10% FCS (Sigma), 2 mM Glutamine (Gibco), P/S, Hygromycin b 100 µg/mL and G418 250 μg/mL
The cells from flasks of near-confluent cultures are detached and disaggregated by treatment with trypsin as described above. The cells are resuspended in culture medium and counted. The cell suspension are diluted with medium to give about 3.5×10^6 cells/mL and […] of cell suspension are put onto 2 10 cm culture dishes containing 9 mL of culture medium. The plates are incubated at 37° C. in a humidified atmosphere of 5% CO2 in air
• Control 0.2 μg pTK Renilla, 5.8 μg pBluescript KS, 500 μl OPTIMEM (GIBCO), 18 μl Fugene 6 • Induced 0.1 μg pMEKK1, 0.2 μg pTK Renilla, 5.7 μg pBluescript KS, 500 μl OPTIMEM (GIBCO), 18 μl Fugene 6 30′ RT
The transfection mixture is added to the plated cells. The plates are incubated over night at 37° C. in a humidified atmosphere of 5% CO2 in air
A 96 wells plate containing 100 μl of culture medium per well is prepared
Compound: 2 μl of Hit compound stock dilution are added to the 100 μl (in triplicate). The transfected cells are trypsinised and re-suspend in 12 mL of culture medium. 100 μl of the dilution are added to each of the 96 wells plate. The plate is incubated over night at 37° C. in a humidified atmosphere of 5% CO2 in air
The medium is removed from the plate and the cells washed two times with 100 μl PBS Completely remove the rinse solution before applying PLB reagent. Dispense into each culture well […] of 1×PLB. Place the culture plates on a rocking platform or orbital shaker with gentle rocking/shaking to ensure complete and even coverage of the cell monolayer with 1×PLB. Rock the culture plates at room temperature for 15 minutes. Transfer 20 μl of the lysate into a white opaque 96 wells plate. Read in a luminometer. • Inject 50 μl of Luciferase Assay Reagent II wait 5″, read 10″ • Inject 50 μl of Stop & Glo® Reagent wait 5″, read 10″ Check RLU Luciferase/RLU Renilla*1000

Sequence of recombinant, pre-activated GST-JNK2 (P45984 whole entry): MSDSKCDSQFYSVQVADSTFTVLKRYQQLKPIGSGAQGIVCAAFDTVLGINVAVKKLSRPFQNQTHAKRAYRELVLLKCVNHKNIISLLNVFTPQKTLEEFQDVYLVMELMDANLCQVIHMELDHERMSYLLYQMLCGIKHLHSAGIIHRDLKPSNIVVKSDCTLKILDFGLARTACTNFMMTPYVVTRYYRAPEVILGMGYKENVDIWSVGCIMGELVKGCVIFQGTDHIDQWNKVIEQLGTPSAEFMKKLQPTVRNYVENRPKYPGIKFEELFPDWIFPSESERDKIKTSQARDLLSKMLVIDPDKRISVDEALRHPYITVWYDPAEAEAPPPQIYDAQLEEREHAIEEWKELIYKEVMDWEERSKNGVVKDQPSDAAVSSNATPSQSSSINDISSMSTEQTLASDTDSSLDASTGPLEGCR

| melting point | IC50 [1] [nM] | IC50 [2] [nM] | IC50 (ERK2) [nM] | SMILES | further results |
| --- | --- | --- | --- | --- | --- |
| 247 °C (dec.) |  |  |  | N#CC(c1ccnc(NCCc2ccccn2)n1)c1nc2ccccc2s1 (stereo not drawn) (as salt: TFA) [Compound 28, 1,3-benzothiazol-2-yl(2-{[2-(2-pyridinyl)ethyl]amino}-4-pyrimidinyl)acetonitrile] |  |
| 250 °C (dec.) |  |  |  | N#CC(c1ccnc(NCc2ccccn2)n1)c1nc2ccccc2s1 (stereo not drawn) (as salt: TFA) [Compound 29, 1,3-benzothiazol-2-yl{2-[(2-pyridinylmethyl)amino]-4-pyrimidinyl}acetonitrile] |  |
| 204 to 205 °C |  |  |  | CN(C)CCCNc1nccc(C(C#N)c2nc3ccccc3s2)n1 (stereo not drawn) (as salt: TFA) [Compound 47, 1,3-benzothiazol-2-yl(2-{[3-(dimethylamino)propyl]amino}pyrimidin-4-yl)acetonitrile] |  |
| 228 to 230 °C |  |  |  | N#CC(c1ccnc(NCCN2CCCCC2)n1)c1nc2ccccc2s1 (stereo not drawn) (as salt: TFA) [Compound 48, 1,3-benzothiazol-2-yl {2-[(2-piperidin-1-ylethyl)amino]pyrimidin-4-yl}acetonitrile] |  |
| 219 to 220 °C |  |  |  | Cn1cncc1CCNc1nccc(C(C#N)c2nc3ccccc3s2)n1 (stereo not drawn) (as salt: TFA) [Compound 49, 1,3-benzothiazol-2-yl(2-{[2-(1-methyl-1H-imidazol-5-yl)ethyl]amino}pyrimidin-4-yl)acetonitrile] |  |
|  | 500 | 290 | > 30000 | N#CC(c1ccnc(Cl)n1)c1nc2ccccc2s1 (stereo not drawn) [Compound 1, 1,3-benzothiazol-2-yl(2-chloro-4-pyrimidinyl)-acetonitrile] |  |
|  | 970 | 350 | > 30000 | CSc1nccc(C(C#N)c2nc3ccccc3s2)n1 (stereo not drawn) [Compound 4, 1,3-benzothiazol-2-yl[2-(methylsulfanyl)-4-pyrimidinyl]acetonitrile] |  |
|  | 210 | 70 | > 30000 | N#CC(c1ccnc(NCCc2c[nH]cn2)n1)c1nc2ccccc2s1 (stereo not drawn) [Compound 10, 1,3-benzothiazol-2-yl(2-{[2-(1H-imidazol-4-yl)ethyl]amino}-4-pyrimidinyl)acetonitrile] | IC50 (preactivated p38): > 30000 nM |
|  | 2300 | 950 | > 30000 | CNc1nccc(C(C#N)c2nc3ccccc3s2)n1 (stereo not drawn) [Compound 15, 1,3-benzothiazol-2-yl[2-(methylamino)-4-pyrimidinyl]acetonitrile] |  |
|  | 1800 | 510 | > 30000 | N#CC(c1ccnc(NCCO)n1)c1nc2ccccc2s1 (stereo not drawn) [Compound 23, 1,3-benzothiazol-2-yl {2-[(2-hydroxyethyl)amino]-4-pyrimidinyl}acetonitrile] | IC50 (preactivated p38): > 30000 nM |
| 270 to 272 °C |  |  |  | N#CC(c1ccnc(N2CCCC2)n1)c1nc2ccccc2s1 (stereo not drawn) [Compound 26, 1,3-benzothiazol-2-yl[2-(1-pyrrolidinyl)-4-pyrimidinyl]acetonitrile] |  |
| 256 °C (dec.) |  |  |  | N#CC(c1ccnc(NCCc2ccccc2)n1)c1nc2ccccc2s1 (stereo not drawn) [Compound 27, 1,3-benzothiazol-2-yl {2-[(2-phenylethyl)amino]-4-pyrimidinyl}acetonitrile] |  |
|  |  |  |  | N#CC(c1ccnc(NCCc2cccnc2)n1)c1nc2ccccc2s1 (stereo not drawn) [Compound 33, 1,3-benzothiazol-2-yl(2-{[2-(3-pyridinyl)ethyl]amino}-4-pyrimidinyl)acetonitrile] | inhibition at 10 µM [3]: > 50% |
| 258 to 261 °C |  |  |  | N#CC(c1ccnc(NCCc2ccc(O)cc2)n1)c1nc2ccccc2s1 (stereo not drawn) [Compound 43, 1,3-benzothiazol-2-yl(2-{[2-(4-hydroxyphenyl)ethyl]amino}pyrimidin-4-yl)acetonitrile] |  |
|  | 250 | 60 | > 30000 | N#CC(c1ccnc(OCc2ccccc2)n1)c1nc2ccccc2s1 (stereo not drawn) [Compound 80, 1,3-benzothiazol-2-yl[2-(benzyloxy)pyrimidin-4-yl]acetonitrile] | IC50 (preactivated p38): > 30000 nM |
|  |  |  |  | N#CC(c1ccnc(OCc2ccc(CN3CCOCC3)cc2)n1)c1nc2ccccc2s1 (stereo not drawn) [Compound 93, 1,3-benzothiazol-2-yl(2-{[4-(morpholin-4-ylmethyl)benzyl]oxy}pyrimidin-4-yl)acetonitrile] | inhibition at 10 µM [3]: > 50% |
|  |  |  |  | N#CC(c1ccnc(OCc2ccc(CN3CCCCC3)cc2)n1)c1nc2ccccc2s1 (stereo not drawn) [Compound 95, 1,3-benzothiazol-2-yl(2-{[4-(piperidin-1-ylmethyl)benzyl]oxy}pyrimidin-4-yl)acetonitrile] | inhibition at 10 µM [3]: > 50% |
|  | 300 | 30 | > 30000 | COc1ccc(Oc2nccc(C(C#N)c3nc4ccccc4s3)n2)cc1 (stereo not drawn) [Compound 96, 1,3-benzothiazol-2-yl[2-(4-methoxyphenoxy)pyrimidin-4-yl]acetonitrile] | IC50 (preactivated p38): > 30000 nM |
|  | 450 | 105 | > 30000 | COc1nccc(C(C#N)c2nc3ccccc3s2)n1 (stereo not drawn) [Compound 102, 1,3-benzothiazol-2-yl(2-methoxy-4-pyrimidinyl)-acetonitrile] |  |
